Measured values reported in ChEMBL document CHEMBL1641539 (Bioorg Med Chem Lett, 2011).

Columns and labels:
[1] = target: SRSF protein kinase 2 (Homo sapiens) (UniProt P78362); assay: Inhibition of human SRPK2 at 10 uM after 60 mins by TR-FRET assay; values are per cent of control
[2] = target: Cyclin-dependent kinase 5/CDK5 activator 1 (Homo sapiens) (UniProt Q00535+Q15078); assay: Inhibition of human CDK5/p35 at 10 uM after 60 mins by TR-FRET assay; values are per cent of control
[3] = target: Serine/threonine-protein kinase Nek7 (Homo sapiens) (UniProt Q8TDX7); assay: Inhibition of human NEK7 at 10 uM after 60 mins by TR-FRET assay; values are per cent of control
[4] = test system: Tyrosine-protein kinase ABL1 (Homo sapiens), P00519 [T315I]; assay: Inhibition of human Abl T315I mutant at 10 uM after 60 mins by TR-FRET assay; values are per cent of control
[5] = target: Death-associated protein kinase 3 (Homo sapiens) (UniProt O43293); assay: Inhibition of human ZIPK at 10 uM after 60 mins by TR-FRET assay; values are per cent of control
[6] = target: Proto-oncogene tyrosine-protein kinase Src (Homo sapiens) (UniProt P12931); assay: Inhibition of human Src (1 to 530) at 10 uM after 60 mins by TR-FRET assay; values are per cent of control
[7] = target: MAP kinase-interacting serine/threonine-protein kinase 2 (Homo sapiens) (UniProt Q9HBH9); assay: Inhibition of human Mnk2 at 10 uM after 60 mins by TR-FRET assay; values are per cent of control
[8] = target: Serine/threonine-protein kinase D2 (Homo sapiens) (UniProt Q9BZL6); assay: Inhibition of human PKD2 at 10 uM after 60 mins by TR-FRET assay; values are per cent of control
[9] = target: Dual specificity mitogen-activated protein kinase kinase 4 (Mus musculus) (UniProt P47809); assay: Inhibition of mouse MKK4 at 10 uM after 60 mins by TR-FRET assay; values are per cent of control
[10] = target: Serine/threonine-protein kinase WNK3 (Homo sapiens) (UniProt Q9BYP7); assay: Inhibition of human WNK3 at 10 uM after 60 mins by TR-FRET assay; values are per cent of control
[11] = target: Serine/threonine-protein kinase SIK1 (Homo sapiens) (UniProt P57059); assay: Inhibition of human SIK at 10 uM after 60 mins by TR-FRET assay; settings: values are per cent of control
[12] = target: Ribosomal protein S6 kinase alpha-1 (Homo sapiens) (UniProt Q15418); assay: Inhibition of human Rsk1 at 10 uM after 60 mins by TR-FRET assay; settings: values are per cent of control
[13] = target: Proto-oncogene tyrosine-protein kinase receptor Ret (Homo sapiens) (UniProt P07949); assay: Inhibition of human Ret at 10 uM after 60 mins by TR-FRET assay; values are per cent of control
[14] = target: Serine/threonine-protein kinase ULK2 (Homo sapiens) (UniProt Q8IYT8); assay: Inhibition of human ULK2 at 10 uM after 60 mins by TR-FRET assay; values are per cent of control
[15] = target: Tyrosine-protein kinase Fgr (Homo sapiens) (UniProt P09769); assay: Inhibition of human Fgr at 10 uM after 60 mins by TR-FRET assay; values are per cent of control
[16] = target: Mitogen-activated protein kinase 13 (Homo sapiens) (UniProt O15264); assay: Inhibition of human SAPK4 at 10 uM after 60 mins by TR-FRET assay; settings: values are per cent of control
[17] = target: Fibroblast growth factor receptor 2 (Homo sapiens) (UniProt P21802); assay: Inhibition of human FGFR2 at 10 uM after 60 mins by TR-FRET assay; values are per cent of control
[18] = target: Serine/threonine-protein kinase PAK 4 (Homo sapiens) (UniProt O96013); assay: Inhibition of human PAK4 at 10 uM after 60 mins by TR-FRET assay; values are per cent of control
[19] = target: Ribosomal protein S6 kinase alpha-5 (Homo sapiens) (UniProt O75582); assay: Inhibition of human MSK1 at 10 uM after 60 mins by TR-FRET assay; settings: values are per cent of control
[20] = target: CDK3/cyclin E (Homo sapiens) (UniProt P24864+O96020+Q00526); assay: Inhibition of human CDK3/cyclinE at 10 uM after 60 mins by TR-FRET assay; values are per cent of control
[21] = target: Casein kinase I isoform gamma-2 (Homo sapiens) (UniProt P78368); assay: Inhibition of human CK1gamma2 at 10 uM after 60 mins by TR-FRET assay; values are per cent of control
[22] = target: Ribosomal protein S6 kinase alpha-3 (Homo sapiens) (UniProt P51812); assay: Inhibition of human Rsk2 at 10 uM after 60 mins by TR-FRET assay; settings: values are per cent of control
[23] = target: Protein kinase C alpha type (Homo sapiens) (UniProt P17252); assay: Inhibition of human PKCalpha at 10 uM after 60 mins by TR-FRET assay; values are per cent of control
[24] = target: Tyrosine-protein kinase ABL2 (Mus musculus) (UniProt Q4JIM5); assay: Inhibition of mouse Arg at 10 uM after 60 mins by TR-FRET assay; values are per cent of control
[25] = target: Inhibitor of nuclear factor kappa-B kinase subunit alpha (Homo sapiens) (UniProt O15111); assay: Inhibition of human IKKalpha at 10 uM after 60 mins by TR-FRET assay; values are per cent of control
[26] = target: Serine/threonine-protein kinase Nek6 (Homo sapiens) (UniProt Q9HC98); assay: Inhibition of human NEK6 at 10 uM after 60 mins by TR-FRET assay; values are per cent of control
[27] = target: Myotonin-protein kinase (Homo sapiens) (UniProt Q09013); assay: Inhibition of human DMPK at 10 uM after 60 mins by TR-FRET assay; values are per cent of control
[28] = target: Casein kinase I isoform gamma-1 (Homo sapiens) (UniProt Q9HCP0); assay: Inhibition of human CK1gamma1 at 10 uM after 60 mins by TR-FRET assay; values are per cent of control

Ribosomal protein S6 kinase alpha-5 (Homo sapiens), sequence (O75582 whole entry, looked up): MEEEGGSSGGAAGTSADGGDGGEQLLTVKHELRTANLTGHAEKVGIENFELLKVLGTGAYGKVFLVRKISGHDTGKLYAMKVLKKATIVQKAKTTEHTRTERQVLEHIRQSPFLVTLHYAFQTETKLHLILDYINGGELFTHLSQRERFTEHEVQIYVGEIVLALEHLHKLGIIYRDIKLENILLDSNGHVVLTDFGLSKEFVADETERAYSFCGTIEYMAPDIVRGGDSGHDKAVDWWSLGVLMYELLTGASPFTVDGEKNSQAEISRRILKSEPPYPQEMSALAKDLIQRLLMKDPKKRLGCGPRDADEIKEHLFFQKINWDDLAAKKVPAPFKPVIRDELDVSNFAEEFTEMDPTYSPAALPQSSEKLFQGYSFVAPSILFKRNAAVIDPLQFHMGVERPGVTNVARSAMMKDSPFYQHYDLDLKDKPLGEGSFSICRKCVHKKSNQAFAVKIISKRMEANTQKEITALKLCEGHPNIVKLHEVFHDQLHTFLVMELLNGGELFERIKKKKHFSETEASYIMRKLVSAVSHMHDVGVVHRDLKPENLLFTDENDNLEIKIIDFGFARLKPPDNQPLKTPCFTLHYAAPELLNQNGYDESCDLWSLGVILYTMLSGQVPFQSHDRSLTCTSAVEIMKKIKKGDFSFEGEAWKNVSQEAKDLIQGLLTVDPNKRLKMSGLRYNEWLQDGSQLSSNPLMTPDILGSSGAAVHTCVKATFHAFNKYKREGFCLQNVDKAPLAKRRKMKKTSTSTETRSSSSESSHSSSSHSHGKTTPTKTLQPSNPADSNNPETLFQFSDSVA
Fibroblast growth factor receptor 2 (Homo sapiens), sequence (P21802 22-821 limits assumed): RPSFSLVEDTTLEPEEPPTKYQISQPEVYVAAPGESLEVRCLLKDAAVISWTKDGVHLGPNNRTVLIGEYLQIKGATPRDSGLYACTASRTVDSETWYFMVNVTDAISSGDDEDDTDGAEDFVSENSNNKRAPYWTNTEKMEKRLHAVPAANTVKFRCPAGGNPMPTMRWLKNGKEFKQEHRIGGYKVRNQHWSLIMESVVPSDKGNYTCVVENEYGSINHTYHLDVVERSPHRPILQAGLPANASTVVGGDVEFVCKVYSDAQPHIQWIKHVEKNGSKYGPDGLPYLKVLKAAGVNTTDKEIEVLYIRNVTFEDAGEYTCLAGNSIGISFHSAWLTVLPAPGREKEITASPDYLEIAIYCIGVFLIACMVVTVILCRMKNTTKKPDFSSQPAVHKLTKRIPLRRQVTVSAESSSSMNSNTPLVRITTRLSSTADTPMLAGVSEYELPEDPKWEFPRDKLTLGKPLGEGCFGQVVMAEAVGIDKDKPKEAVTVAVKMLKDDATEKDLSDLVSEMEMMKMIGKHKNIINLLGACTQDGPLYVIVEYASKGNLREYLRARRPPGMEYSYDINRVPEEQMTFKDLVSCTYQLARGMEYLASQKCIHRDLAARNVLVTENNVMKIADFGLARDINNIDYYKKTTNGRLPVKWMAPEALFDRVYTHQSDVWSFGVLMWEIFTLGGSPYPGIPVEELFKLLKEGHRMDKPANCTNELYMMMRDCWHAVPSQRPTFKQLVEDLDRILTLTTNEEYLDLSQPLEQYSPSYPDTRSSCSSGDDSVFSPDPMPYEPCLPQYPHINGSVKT
CDK3/cyclin E (Homo sapiens), sequence (O96020 whole entry, looked up, canonical isoform): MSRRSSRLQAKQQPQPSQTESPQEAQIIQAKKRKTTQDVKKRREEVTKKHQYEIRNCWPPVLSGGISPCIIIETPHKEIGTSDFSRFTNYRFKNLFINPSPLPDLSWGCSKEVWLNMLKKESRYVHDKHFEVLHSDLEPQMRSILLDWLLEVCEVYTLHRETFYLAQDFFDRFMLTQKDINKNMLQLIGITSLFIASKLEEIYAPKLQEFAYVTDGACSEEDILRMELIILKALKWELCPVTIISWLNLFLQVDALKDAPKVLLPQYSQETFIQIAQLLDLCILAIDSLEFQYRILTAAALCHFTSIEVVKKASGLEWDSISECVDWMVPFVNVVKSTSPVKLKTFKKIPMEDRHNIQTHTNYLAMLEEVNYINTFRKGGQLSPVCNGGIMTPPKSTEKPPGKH
CDK3/cyclin E (Homo sapiens), sequence (P24864 whole entry, looked up, canonical isoform): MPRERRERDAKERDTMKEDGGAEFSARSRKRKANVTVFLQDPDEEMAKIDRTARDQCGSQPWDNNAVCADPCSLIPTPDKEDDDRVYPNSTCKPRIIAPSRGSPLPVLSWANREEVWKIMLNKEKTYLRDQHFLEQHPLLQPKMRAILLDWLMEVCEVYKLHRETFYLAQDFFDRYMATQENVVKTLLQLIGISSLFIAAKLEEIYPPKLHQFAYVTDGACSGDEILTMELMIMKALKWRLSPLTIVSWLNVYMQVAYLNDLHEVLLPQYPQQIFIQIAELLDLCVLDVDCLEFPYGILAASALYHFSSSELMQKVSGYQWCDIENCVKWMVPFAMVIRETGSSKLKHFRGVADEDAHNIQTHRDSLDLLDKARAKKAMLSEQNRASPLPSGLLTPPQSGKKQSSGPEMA
CDK3/cyclin E (Homo sapiens), sequence (Q00526 whole entry, looked up, canonical isoform): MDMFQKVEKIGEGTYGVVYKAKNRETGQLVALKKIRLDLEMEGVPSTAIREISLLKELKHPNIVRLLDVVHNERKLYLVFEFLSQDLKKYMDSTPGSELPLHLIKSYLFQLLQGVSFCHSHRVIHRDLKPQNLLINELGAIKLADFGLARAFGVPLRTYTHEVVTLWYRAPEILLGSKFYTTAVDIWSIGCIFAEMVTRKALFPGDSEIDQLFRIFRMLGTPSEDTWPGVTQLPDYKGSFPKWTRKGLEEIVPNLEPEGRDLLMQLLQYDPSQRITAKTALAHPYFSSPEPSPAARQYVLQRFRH
Casein kinase I isoform gamma-2 (Homo sapiens), sequence (P78368 whole entry, looked up, canonical isoform): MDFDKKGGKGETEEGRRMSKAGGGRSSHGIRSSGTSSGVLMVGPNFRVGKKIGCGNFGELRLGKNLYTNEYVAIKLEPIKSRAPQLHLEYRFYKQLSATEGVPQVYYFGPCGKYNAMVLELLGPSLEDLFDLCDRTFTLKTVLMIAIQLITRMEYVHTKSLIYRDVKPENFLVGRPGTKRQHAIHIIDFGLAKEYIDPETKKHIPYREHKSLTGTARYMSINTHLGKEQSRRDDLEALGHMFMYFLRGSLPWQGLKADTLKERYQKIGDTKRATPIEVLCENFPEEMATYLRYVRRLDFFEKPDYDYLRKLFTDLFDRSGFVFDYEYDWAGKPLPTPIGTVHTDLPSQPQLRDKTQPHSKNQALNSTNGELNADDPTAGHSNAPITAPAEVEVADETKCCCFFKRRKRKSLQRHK
Tyrosine-protein kinase Fgr (Homo sapiens), sequence (P09769 2-529 limits assumed): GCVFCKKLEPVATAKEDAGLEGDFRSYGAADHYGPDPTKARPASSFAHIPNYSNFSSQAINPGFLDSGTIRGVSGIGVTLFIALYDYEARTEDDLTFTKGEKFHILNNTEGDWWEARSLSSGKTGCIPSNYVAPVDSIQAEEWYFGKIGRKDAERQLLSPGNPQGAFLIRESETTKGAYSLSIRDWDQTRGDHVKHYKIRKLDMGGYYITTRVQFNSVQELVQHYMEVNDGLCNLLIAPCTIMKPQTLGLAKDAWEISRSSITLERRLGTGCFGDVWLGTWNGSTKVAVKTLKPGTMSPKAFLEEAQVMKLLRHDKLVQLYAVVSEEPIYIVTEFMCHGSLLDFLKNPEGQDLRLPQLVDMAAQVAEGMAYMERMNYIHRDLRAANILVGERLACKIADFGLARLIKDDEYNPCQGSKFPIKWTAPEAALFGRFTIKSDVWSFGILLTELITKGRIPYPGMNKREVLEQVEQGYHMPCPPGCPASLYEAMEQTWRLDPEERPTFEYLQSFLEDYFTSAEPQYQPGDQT
Serine/threonine-protein kinase Nek6 (Homo sapiens), sequence (Q9HC98 whole entry): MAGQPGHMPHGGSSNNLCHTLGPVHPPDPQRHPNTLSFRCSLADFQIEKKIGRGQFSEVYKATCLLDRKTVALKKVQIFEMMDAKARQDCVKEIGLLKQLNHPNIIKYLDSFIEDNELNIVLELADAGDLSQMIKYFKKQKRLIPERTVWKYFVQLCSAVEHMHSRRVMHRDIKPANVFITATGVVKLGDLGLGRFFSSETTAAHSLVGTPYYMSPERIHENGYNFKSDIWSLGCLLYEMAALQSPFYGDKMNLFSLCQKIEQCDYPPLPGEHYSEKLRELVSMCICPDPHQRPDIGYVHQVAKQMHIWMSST
Serine/threonine-protein kinase Nek7 (Homo sapiens), sequence (Q8TDX7 whole entry, looked up): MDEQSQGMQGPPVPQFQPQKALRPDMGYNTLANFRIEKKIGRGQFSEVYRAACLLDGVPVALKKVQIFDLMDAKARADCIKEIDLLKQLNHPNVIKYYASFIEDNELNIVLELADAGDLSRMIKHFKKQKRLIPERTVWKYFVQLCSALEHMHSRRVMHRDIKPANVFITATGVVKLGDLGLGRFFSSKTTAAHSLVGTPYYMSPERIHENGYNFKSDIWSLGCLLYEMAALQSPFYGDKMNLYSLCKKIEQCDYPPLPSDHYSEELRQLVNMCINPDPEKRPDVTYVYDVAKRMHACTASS

S=c1[nH]nc(-c2ccncc2)n1-c1ccc2ccccc2c1
residual activity [1]: 110%
residual activity [2]: 96%
residual activity [3]: 112%
residual activity [4]: 110%
residual activity [5]: 103%
residual activity [6]: 106%
residual activity [7]: 112%
residual activity [8]: 110%
residual activity [9]: 106%
residual activity [10]: 100%
residual activity [11]: 117%
residual activity [12]: 105%
residual activity [13]: 108%
residual activity [14]: 103%
residual activity [15]: 99%
residual activity [16]: 111%
residual activity [17]: 92%
residual activity [18]: 112%
residual activity [19]: 114%
residual activity [20]: 94%
residual activity [21]: 99%
residual activity [22]: 98%
residual activity [23]: 93%
residual activity [24]: 101%
residual activity [25]: 100%
residual activity [26]: 116%
residual activity [27]: 111%
residual activity [28]: 105%
